Results taken from US4154932A (priority 1977, dated 1979).
Like-named read-outs stand apart in the source and are kept apart here.

Key:
[1] = system: phenylquinone induced writhings; assay: animal or person; details: for ED50: Mus musculus
Experimental: In vivo testing was conducted on many of the compounds of the present invention.

[2] = system: Straub Tail induced by oxymorphone; assay: Antagonism of oxymorphone-induced Straub Tail (antagonist activity); assay type: in vivo, mouse; details: for ED50: Mus musculus; for Oxymorphone-Induced Straub Tail po/sc: ratio of ED50 po/sc
Experimental: ^2 Antagonism of Straub Tail induced by oxymorphone (2 mg/kg, s.c.) i

[3] = system: withdrawal jumping (abstinence); assay: Primary physical dependence test in mice (withdrawal jumping on naloxone challenge); details: repeated sc injections for two days
Experimental: (§1) Buprenorphine and (-)XI were tested for physical dependence liability in mice. […] The compounds were then tested as substitutes for morphine in withdrawn morphine-dependent mice.

[4] = system: Morphine Antagonism Rat Tail Flick; assay: Morphine antagonism, Rat Tail Flick (antagonist activity); assay type: in vivo; details: Table 3; for ED50: Rattus norvegicus; for Morphine Antagonism Rat Tail Flick po/sc: ratio of ED50 po/sc
[5] = Physical dependence liability in man (predicted from mouse models); details: prediction from the mouse test model
Experimental: as §1

Cough Response = assay: animal or person; assay type: in vivo, dog; details: for ED50: Canis lupus familiaris
From the text: Comparative Antitussive Effects of (-)-XI, Butorphanol and
Morphine Sulfate in the Unanesthetized Dog

[6] = system: withdrawn morphine-dependent mice; assay: Substitution for morphine in withdrawn morphine-dependent mice; details: 3 to 54 mg/kg sc
Experimental: as §1

[7] = system: opioids, oxymorphone and morphine; assay: Antagonist activity, overall comparison of Table 3; assay type: in vivo
[8] = Analgetic activity, overall comparison of Table 2; assay type: in vivo
Rat Vocalization = Rat Vocalization (analgetic activity); assay type: in vivo; details: Table 2; for ED50: Rattus norvegicus; for Rat Vocalization po/sc: ratio of ED50 po/sc
Rat Writhing = Rat Writhing (analgetic activity); assay type: in vivo; details: Table 2; for ED50: Rattus norvegicus; for Rat Writhing po/sc: ratio of ED50 po/sc
[9] = sc, read-out: Agonist Activity, Phenylquinone Writhing ED50
[10] = sc, mice, Table 1, oxymorphone 2 mg/kg, s.c., read-out: Antagonist Activity, Oxymorphone Straub Tail ED50
[11] = po, read-out: Antagonist activity ED50, Morphine Antagonism Rat Tail Flick po
[12] = sc, read-out: Antagonist activity ED50, Morphine Antagonism Rat Tail Flick sc
[13] = central, read-out: Analgetic activity ED50, Intraventricular
[14] = po, read-out: Analgetic activity ED50, Mouse Writhing po
[15] = sc, read-out: Analgetic activity ED50, Mouse Writhing sc
[16] = po, unanesthetized dog, read-out: Oral antitussive ED50
[17] = sc, unanesthetized dog, read-out: Antitussive ED50
[18] = po, read-out: Analgetic activity ED50, Rat Vocalization po
[19] = sc, read-out: Analgetic activity ED50, Rat Vocalization sc
[20] = po, Table 3, read-out: Antagonist activity ED50, Oxymorphone-Induced Straub Tail po
[21] = sc, Table 3, read-out: Antagonist activity ED50, Oxymorphone-Induced Straub Tail sc
[22] = po, read-out: Analgetic activity ED50, Rat Writhing po
[23] = sc, read-out: Analgetic activity ED50, Rat Writhing sc

In the case of `CN1CCC23COCCC2C1Cc1ccc(O)cc13` (racemic) [(±)-VI], the ED50 [1, 9] is reported as 0.34 mg/kg and the ED50 [2, 10] is reported as > 40 mg/kg.

For `Oc1ccc2c(c1)[C@]13CCN(CC4CC4)[C@H](C2)[C@@H]1CCOC3` [(-)-XI, (-)-17-Cyclopropylmethyl-3-hydroxy-6-oxamorphinan], the “Withdrawal jumping (primary physical dependence)” value [3] was “did not exhibit withdrawal jumping (abstinence)”, the ED50 [4, 11] was ~3 mg/kg and the ED50 [4, 12] was 0.26 mg/kg. The “Morphine Antagonism Rat Tail Flick po/sc” value [4] was 12, the ED50 [1, 13] was 0.0012 mg/kg and the ED50 [1, 14] was 0.3 mg/kg. For the same molecule, the ED50 [1, 9] was 0.028 mg/kg, the ED50 [1, 15] was 0.028 mg/kg and the “Mouse Writhing po/sc” value ([1]; mouse, in vivo) was 11. The “sc/I. Vent.” value ([1]; mouse, in vivo, sc) was 23, the “Predicted physical dependence liability in man” value [5] was “nil or of a low order” and the “Percent Inhibition of Cough Response” value (Cough Response; 0.005 mg/kg sc, 15 min) was 7%. The “Percent Inhibition of Cough Response” value (Cough Response; 0.005 mg/kg sc, 30 min) was 52%, the “Percent Inhibition of Cough Response” value (Cough Response; 0.005 mg/kg sc, 60 min) was 15% and the “Percent Inhibition of Cough Response” value (Cough Response; 0.005 mg/kg sc, 120 min) was 41%. For the same molecule, the “Percent Inhibition of Cough Response” value (Cough Response; 0.005 mg/kg sc, 180 min) was 41%, the “Percent Inhibition of Cough Response” value (Cough Response; 0.005 mg/kg sc, 240 min) was 37% and the “Percent Inhibition of Cough Response” value (Cough Response; 0.005 mg/kg sc, 300 min) was 33%. The “Percent Inhibition of Cough Response” value (Cough Response; 0.01 mg/kg sc, 15 min) was 38%, the “Percent Inhibition of Cough Response” value (Cough Response; 0.01 mg/kg sc, 30 min) was 68% and the “Percent Inhibition of Cough Response” value (Cough Response; 0.01 mg/kg sc, 60 min) was 86%. The “Percent Inhibition of Cough Response” value (Cough Response; 0.01 mg/kg sc, 120 min) was 98%, the “Percent Inhibition of Cough Response” value (Cough Response; 0.01 mg/kg sc, 180 min) was 62% and the “Percent Inhibition of Cough Response” value (Cough Response; 0.01 mg/kg sc, 240 min) was 50%. For the same molecule, the “Percent Inhibition of Cough Response” value (Cough Response; 0.01 mg/kg sc, 300 min) was 24%, the “Percent Inhibition of Cough Response” value (Cough Response; 0.02 mg/kg sc, 15 min) was 90% and the “Percent Inhibition of Cough Response” value (Cough Response; 0.02 mg/kg sc, 30 min) was 99%. The “Percent Inhibition of Cough Response” value (Cough Response; 0.02 mg/kg sc, 60 min) was 88%, the “Percent Inhibition of Cough Response” value (Cough Response; 0.02 mg/kg sc, 120 min) was 70% and the “Percent Inhibition of Cough Response” value (Cough Response; 0.02 mg/kg sc, 180 min) was 67%. The “Percent Inhibition of Cough Response” value (Cough Response; 0.02 mg/kg sc, 240 min) was 67%, the “Percent Inhibition of Cough Response” value (Cough Response; 0.02 mg/kg sc, 300 min) was 64% and the “Percent Inhibition of Cough Response” value (Cough Response; 0.05 mg/kg sc, 15 min) was 100%. The “Percent Inhibition of Cough Response” value (Cough Response; 0.05 mg/kg sc, 30 min) was 100%, the “Percent Inhibition of Cough Response” value (Cough Response; 0.05 mg/kg sc, 60 min) was 100% and the “Percent Inhibition of Cough Response” value (Cough Response; 0.05 mg/kg sc, 120 min) was 100%. For the same molecule, the “Percent Inhibition of Cough Response” value (Cough Response; 0.05 mg/kg sc, 180 min) was 100%, the “Percent Inhibition of Cough Response” value (Cough Response; 0.05 mg/kg sc, 240 min) was 100% and the “Percent Inhibition of Cough Response” value (Cough Response; 0.05 mg/kg sc, 300 min) was 100%. The ED50 (Cough Response; [16]) was 0.04 mg/kg, the ED50 (Cough Response; [17]) was 0.006 mg/kg and the “Antitussive potency relative to butorphanol” value (Cough Response; dog, in vivo, po) was 8 times. The “Antitussive potency relative to morphine sulfate” value (Cough Response; dog, in vivo, po) was 16 times, the “Antitussive potency relative to butorphanol” value (Cough Response; dog, in vivo, sc) was 1.7 times and the “Antitussive potency relative to morphine sulfate” value (Cough Response; dog, in vivo, sc) was “approximately 7 times”. The “Duration of antitussive activity” value (Cough Response; dog, in vivo, sc) was “significantly longer duration of activity than either butorphanol or morphine sulfate”, the Antitussive activity (Cough Response; subcutaneous, unanesthetized dog) was “potent antitussive agent” and the Substitution for morphine [6] was “no evidence of substitution for morphine”. For the same molecule, the “Oral/parenteral potency ratio relative to antagonist activity, comparison” value [7] was “superior to butorphanol and about equal to that of buprenorphine”, the “Antagonist potency relative to butorphanol” value ([7]; blocking the effects of oxymorphone and morphine) was “about twice as potent as butorphanol” and the “Oral/parenteral analgetic potency ratio, comparison” value [8] was “comparable to buprenorphine and approximately ten times better than butorphanol”. For the same molecule, the “Oral analgetic potency, comparison” value ([8]; oral) was “markedly better than butorphanol and equivalent to buprenorphine”, the ED50 (Rat Vocalization; [18]) was 0.11 mg/kg and the ED50 (Rat Vocalization; [19]) was 0.006 mg/kg. For the same molecule, the “Rat Vocalization po/sc” value (Rat Vocalization) was 18, the ED50 [2, 10] was 0.44 mg/kg and the ED50 [2, 20] was 14 mg/kg. For the same molecule, the ED50 [2, 21] was 0.44 mg/kg, the “Oxymorphone-Induced Straub Tail po/sc” value ([2]; Table 3) was 32 and the ED50 (Rat Writhing; [22]) was 0.22 mg/kg. For the same molecule, the ED50 (Rat Writhing; [23]) was 0.021 mg/kg and the “Rat Writhing po/sc” value (Rat Writhing) was 11.

For `Oc1ccc2c(c1)[C@@]13CCCC[C@@]1(O)[C@@H](C2)N(CC1CCC1)CC3` [Butorphanol], the ED50 [4, 11] was 22 mg/kg, the ED50 [4, 12] was 0.43 mg/kg and the “Morphine Antagonism Rat Tail Flick po/sc” value [4] was 51. For the same molecule, the ED50 [1, 13] was 0.0019 mg/kg, the ED50 [1, 14] was 5.1 mg/kg and the ED50 [1, 15] was 0.045 mg/kg. For the same molecule, the Blood-brain barrier penetration ([1]; mouse, in vivo) was “penetrate the blood-brain barrier more readily than either morphine or buprenorphine and to about the same degree as each other”, the “Mouse Writhing po/sc” value ([1]; ratio of ED50 po/sc, Table 2) was 113 and the “sc/I. Vent.” value ([1]; ratio of ED50 sc/intraventricular, Table 2) was 24. For the same molecule, the “Percent Inhibition of Cough Response” value (Cough Response; 0.1 mg/kg sc, 15 min) was 98%, the “Percent Inhibition of Cough Response” value (Cough Response; 0.1 mg/kg sc, 30 min) was 96% and the “Percent Inhibition of Cough Response” value (Cough Response; 0.1 mg/kg sc, 60 min) was 92%. For the same molecule, the “Percent Inhibition of Cough Response” value (Cough Response; 0.1 mg/kg sc, 120 min) was 84%, the “Percent Inhibition of Cough Response” value (Cough Response; 0.1 mg/kg sc, 180 min) was 64% and the “Percent Inhibition of Cough Response” value (Cough Response; 0.1 mg/kg sc, 240 min) was 41%. The “Percent Inhibition of Cough Response” value (Cough Response; 0.1 mg/kg sc, 300 min) was 28%, the ED50 (Cough Response; [16]) was 0.32 mg/kg and the ED50 (Cough Response; [17]) was 0.01 mg/kg. For the same molecule, the ED50 (Rat Vocalization; [18]) was 0.83 mg/kg, the ED50 (Rat Vocalization; [19]) was 0.012 mg/kg and the “Rat Vocalization po/sc” value (Rat Vocalization) was 69. For the same molecule, the ED50 [2, 20] was 55 mg/kg, the ED50 [2, 21] was 0.98 mg/kg and the “Oxymorphone-Induced Straub Tail po/sc” value ([2]; Table 3) was 56. The ED50 (Rat Writhing; [22]) was 2.1 mg/kg, the ED50 (Rat Writhing; [23]) was 0.04 mg/kg and the “Rat Writhing po/sc” value (Rat Writhing) was 53.

`CN1CC[C@]23c4c5ccc(O)c4O[C@H]2[C@@H](O)C=C[C@H]3[C@H]1C5` [Morphine SO4] gave an ED50 [1, 13] of 0.0032 mg/kg, an ED50 [1, 14] of 3.1 mg/kg and an ED50 [1, 15] of 0.26 mg/kg. The “Mouse Writhing po/sc” value ([1]; mouse, in vivo) was 12, the “Oral antitussive ED50” value (Cough Response; dog, in vivo, po) was 0.62 mg/kg and the “Antitussive ED50” value (Cough Response; dog, in vivo, sc) was 0.04 mg/kg. For the same molecule, the ED50 (Rat Vocalization; [18]) was 2.1 mg/kg, the ED50 (Rat Vocalization; [19]) was 0.19 mg/kg and the “Rat Vocalization po/sc” value (Rat Vocalization) was 11. The ED50 (Rat Writhing; [22]) was 1.6 mg/kg, the ED50 (Rat Writhing; [23]) was 0.16 mg/kg and the “Rat Writhing po/sc” value (Rat Writhing) was 10.

For `COc1ccc2c(c1)[C@]13CCN(C)[C@H](C2)[C@@H]1CCOC3` (racemic) [(±)-V, 3-Methoxy-17-methyl-6-oxamorphinan], the ED50 [1, 9] was 1.32 mg/kg and the ED50 [2, 10] was > 20 mg/kg.

`COc1ccc2c(c1)[C@]13CCN(CC4CC4)[C@H](C2)[C@@H]1CCOC3` (racemic) [(±)-X, 17-Cyclopropylmethyl-3-methoxy-6-oxamorphinan] gave an ED50 [1, 9] of 0.38 mg/kg and an ED50 [2, 10] of 10 mg/kg.
